Laboratory results reported in publication PMC8262356, “SLC26A6-selective inhibitor identified in a small-molecule screen blocks fluid absorption in small intestine” (JCI Insight, 2021).
Where “and” joins values, the source holds several entries; their conditions need not be identical. Identical values can stand only once.

Molecular target: T1, PAT1 (murine slc26a6) (Mus musculus, UniProt Q8CIW6)
T1 construct: host or cells: Fischer rat thyroid (FRT) cells, lentiviral transduction (pLVX-IRES-mCherry-slc26a6), clonal line FRT-YFP-slc26a6
T1 sequence (Q8CIW6 24-758 limits assumed): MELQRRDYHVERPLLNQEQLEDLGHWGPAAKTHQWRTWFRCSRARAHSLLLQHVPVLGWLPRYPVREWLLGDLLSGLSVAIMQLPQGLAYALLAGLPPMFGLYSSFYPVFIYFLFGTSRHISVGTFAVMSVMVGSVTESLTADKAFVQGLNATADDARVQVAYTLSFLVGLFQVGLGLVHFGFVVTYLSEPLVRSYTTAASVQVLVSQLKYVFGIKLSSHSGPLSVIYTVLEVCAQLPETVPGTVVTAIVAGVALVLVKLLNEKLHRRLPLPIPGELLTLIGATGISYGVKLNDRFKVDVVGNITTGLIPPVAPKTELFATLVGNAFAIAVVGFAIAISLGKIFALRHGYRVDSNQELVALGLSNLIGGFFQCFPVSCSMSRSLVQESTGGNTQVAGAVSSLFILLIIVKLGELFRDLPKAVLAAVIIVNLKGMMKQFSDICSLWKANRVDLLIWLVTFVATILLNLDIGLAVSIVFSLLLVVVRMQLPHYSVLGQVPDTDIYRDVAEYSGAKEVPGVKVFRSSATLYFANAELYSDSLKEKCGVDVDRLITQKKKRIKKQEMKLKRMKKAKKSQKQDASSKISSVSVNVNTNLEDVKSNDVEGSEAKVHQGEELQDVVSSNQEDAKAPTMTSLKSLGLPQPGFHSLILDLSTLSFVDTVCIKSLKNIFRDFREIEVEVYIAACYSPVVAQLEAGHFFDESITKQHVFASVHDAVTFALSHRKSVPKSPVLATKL
Assay: PAT1-mediated Cl-/I- exchange, YFP fluorescence quenching in FRT cells
Type: cell-based
Description: A small-molecule screen was developed to identify PAT1 inhibitors utilizing transfected FRT cells expressing PAT1 (murine slc26a6) together with a halide-sensing cytoplasmic YFP (Figure 1A). Adherent cells in a 96-well format were subjected to an inward gradient of I^– to drive exchange of I^– for Cl^– and consequent quenching of the YFP fluorescence signal.
A collection of approximately 50,000 diverse, drug-like synthetic small molecules (ChemDiv) was screened at a concentration of 25 μM using a Beckman Coulter BioMek FX liquid handling platform with FLUOstar OMEGA plate readers (BMG Labtech). FRT-YFP-slc26a6 cells were plated in 96-well black-walled, clear-bottom plates (Corning Life Sciences) at a density of 20,000 cells/well and cultured for 48 hours until confluent. Cells were washed twice in PBS and incubated for 10 minutes prior to assay in 100 μl PBS containing test compounds. For assay of slc26a6 function, baseline cellular fluorescence was measured for 2 seconds, after which 100 μl NaI-substituted PBS (140 mM NaCl replaced by 140 mM NaI) was added by syringe pump to drive Cl^–/I^– exchange. The initial rate of Cl^–/I^– exchange was determined by single exponential regression of the fluorescence time course. All assay plates contained wells with negative (1% DMSO) and positive (500 μM niflumic acid) controls. For structure-activity relationship studies, analogs of active compounds were purchased from ChemDiv.

Cc1c(Br)c(C(F)(F)F)nn1CC(=O)N1CCc2nc3cc(-c4ccccc4)[nH]n3c(=O)c2C1 [PAT1inh-B01]
time to 50% inhibition of PAT1-mediated Cl-/I- exchange (1 μM): approximately 3 minutes | IC50 (FRT cells expressing PAT1 and YFP, read-out: IC50, inhibition of PAT1-mediated Cl-/I- exchange): ~0.35 µM and 0.35 µM | inhibition at 25 µM (FRT, 25 μM, primary screen): > 75% | reversibility of inhibition following washout (data not shown): fully reversible
